“Also recorded” adds a separate entry of the source.
Legend:
1205Lu-Luc+ cells [1] = experiment: In vitro cell migration of shRNA-transduced cells (Boyden chamber); type: cell-based, human; settings: among shPTX3-1 to 5; data not shown
Protocol: Negative control, PTX3 siRNA duplexes were designed by Thermo Fisher Scientific. MITF (sc-35934), MYD88 (sc-35986) and TWIST1 (sc-38604) siRNAs were from Santa Cruz Biotechnology (TX, USA). IKKα, IKKβ, and TLR4 siRNAs were from Dharmacon (CO, USA). Transfection of siRNA was carried out using Lipofectamine RNAiMAX (Thermo Fisher Scientific), at a final concentration of 25 or 50 nM. Unless stated otherwise, cells were assayed 3 days post transfection. Lentiviral vectors for stable knockdown of PTX3 (NM_002852) in melanoma cells were TRC1.5-pLKO.1-puro vectors containing a s (shPTX3-1 to 5) (Genomic center, University of Minnesota, USA). Lentiviral, packaging (psPAX2) and enveloppe (pMD2.0G) vectors were transfected into HEK293T cells and virus-containing supernatant fractions were harvested after 72 h. The supernatant fractions were filtered and used to infect bioluminescent 1205Lu cells (1205Lu-Luc+) that were described before. Transduced cells were selected with 2 μg/ml puromycin for 3 weeks. The efficiency of PTX3 knockdown was assessed by immunoblotting and analysis of in vitro cell migration using modified Boyden chambers. […]
Serum-stimulated chemotaxis, invasion and transendothelial migration were monitored using modified Boyden chambers (8 μm pores, Sigma) as described before. […] Migrated cells were stained with crystal violet and counted (four fields randomly per well). […]

1205Lu-Luc+ cells [2] = experiment: Experimental lung metastasis (long-term lung colonization) by bioluminescent melanoma cells; type: in vivo, nude mice
Protocol: All mouse experiments were carried out in accordance with the Institutional Animal Care and local ethics committees. For experimental lung metastasis studies, 5-week-old female nude mice (Harlan, IN, USA) were intravenously injected with 1205Lu Luc+cells (1×106) that were transduced with a non targeting shRNA lentivirus (shCTRL) or a PTX3 targeting shRNA lentivirus (shPTX3-5). Images were acquired using a Photon Imager (Biospace Lab, France) on mice injected i.p with 50mg.kg-1 D-luciferin (PerkinElmer, MA, USA). Lung metastasis was monitored and quantified using BLI [12]. In a second set of experiments, short-term lung colonization assays were performed with Cell Tracker Orange-stained 501Mel cells stably expressing PTX3 or not. Cells were intravenously injected in 5-week-old female nude mice that were sacrificed either 30 min or 24 h later. Lungs were perfused with PBS, fixed in 4% paraformaldehyde, OCT-embedded, cryosectioned, immunostained and imaged using a confocal microscope as described.

1205Lu cells [3] = experiment: Serum-stimulated migration (modified Boyden chamber / Transwell); type: cell-based, human
Protocol: (§1) Serum-stimulated chemotaxis, invasion and transendothelial migration were monitored using modified Boyden chambers (8 μm pores, Sigma) as described before. For invasion assays, the upper side of the filter was coated with 0.5 mg.ml-1 matrigel (Corning, N.Y., USA). Migrated cells were stained with crystal violet and counted (four fields randomly per well). For transendothelial migration, 105 HUVECs were grown in the upper chamber of gelatin-coated
(§2) Transwell inserts and treated with human TNFa (10 ng.ml-1) for 16 h. Melanoma cells were allowed to migrate for 6 h or 16 h and migrated cells were visualized and quantified as before. Pictures of five random fields were captured for quantification using NIH ImageJ analysis software. For scratch assays, melanoma cells were grown approximately 80% confluence in 6-well plates. Wounds were generated using a sterile 200 μl pipette tip across each well. Following treatment with rhPTX3 or CM, pictures of four random fields were captured using an imaging station and the number of migrated cells in wounded area was counted with NIH ImageJ analysis software.

A375 cells = experiment: as above; type: cell-based, human; settings: siPTX3-transfected cells, rhPTX3 100 ng.ml-1
Protocol: as §1, §2

1205Lu cells [4] = experiment: Matrigel invasion assay; type: cell-based, human; settings: siPTX3-transfected cells, rhPTX3 100 ng.ml-1
Protocol: as §1, §2

1205Lu cells [5] = experiment: Transendothelial migration on monolayers of TNFα-activated HUVECs; type: cell-based, human; settings: rhPTX3 100 ng.ml-1, 6 h
Protocol: as §1, §2

SKMel28 cells = experiment: In vitro scratch assay; type: cell-based, human; settings: rhPTX3 added to wounded monolayers of PTX3-negative cells
Protocol: as §2

PTX3 = PTX3 expression and secretion (immunoblot of lysates and CM); type: cell-based, human; settings: 1205Lu cells treated with IKK inhibitor
Protocol: (§3) Immunohistochemistry and immunoblot analysis were performed as described before. IHC analysis was performed on melanoma tissue microarrays (US Biomax, MD, USA) using PTX3 antibody (HPA069320, Sigma-Aldrich; 1:50). For immunoblotting, the following antibodies were used at 1:1,000: SPARC (Bio-Techne), PTX3 (Enzo Life Sciences, Switzerland), HSP90, HSP60, TLR4, Fibronectin, ERK2 (Santa Cruz Biotechnology), MITF (Thermo Fisher Scientific), TWIST1 (Abcam, UK), SNAIL, phospho-IKKα/β (Ser176/180), NF-κB p65, phospho-NF-κB p65 (Ser536), I[…]B[…] (L35A5), I[…]B[…] (Ser32/36), IKKα, IKKβ, MYD88, phospho-AKT (Ser473), phospho-ERK1/2 (Thr202/Tyr204) (Cell Signaling Technology, MA, USA).

[6] = system: EMT factors TWIST1 and SNAIL; experiment: EMT factor expression (immunoblot); type: cell-based, human; settings: IKK targeting in melanoma cells
Protocol: as §3

melanoma cells = experiment: Cell migration upon IKK targeting; type: cell-based, human; settings: IKK targeting in melanoma cells
Protocol: as §1

[7] = system: PTX3-expressing 501Mel cells; experiment: PTX3-mediated cell migration; type: cell-based, human; settings: data not shown
Protocol: as §1

501Mel control cells = experiment: Cell migration of control cells; type: cell-based, human; settings: IKK inhibition or TWIST1 depletion
Protocol: as §1

Compound: shPTX3-5: lentiviral shRNA for stable knockdown of PTX3 (TRC1.5-pLKO.1-puro vector), SEQ ID NO: 1 (DNA CCGGGAGGAGCTCAGTATGTTTCATCTCGAGATGAAACATACTGAGCTCCTCTTTTTTG)
- reduction of cell migration compared to shCtrl (1205Lu-Luc+ cells [1]): most efficient in reducing cell migration
- arrest of injected cells into the lungs (BLI) (1205Lu-Luc+ cells [2]; 15 min after tail vein injection, vs shCTRL): equally arrested into the lungs
- lung colonization (BLI) (1205Lu-Luc+ cells [2]; during 15 days after tail vein injection, vs shCTRL): dramatic reduction in lung colonization
- reduction in experimental lung metastasis (ex vivo BLI) (1205Lu-Luc+ cells [2]; endpoint of the assay, stable PTX3 knockdown vs control cells): 6 fold

Compound: recombinant PTX3: recombinant human PTX3 (Bio-Techne)
- rescue of migration by recombinant PTX3 in cells treated with a MYD88 inhibitory peptide (1205Lu cells [3]; data not shown): failed to rescue migration
- rescue of migration of PTX3-depleted cells (1205Lu cells [3]; siPTX3-transfected cells, rhPTX3 100 ng.ml-1): rescued the migratory ability; also recorded: restored the migration
- rescue of migration of TLR4 silenced cells (1205Lu cells [3]; siTLR4-transfected cells stimulated with rhPTX3 for 4 h): ineffective to restore the migration
- rescue of migration of PTX3-depleted cells (A375 cells): rescued the migratory ability
- rescue of invasiveness of PTX3-depleted cells (1205Lu cells [4]): restored the impaired invasiveness
- rescue of transendothelial migration of PTX3-depleted cells (1205Lu cells [5]): rescued
- migration in wound area (SKMel28 cells): enhanced the migration

Compound: Cc1ccc2nc(NCCN)c3ncc(C)n3c2c1 [BMS345541]
- autocrine production of PTX3 (PTX3): impaired the autocrine production of PTX3
- EMT factors levels [6]: reduced EMT factors levels
- cell migration (melanoma cells): reduced
- PTX3-mediated cell migration [7]: reduction of PTX3-mediated cell migration
- migration of control cells (501Mel control cells): also reduced
